Data on 62 molecules can be found in patent US20050004126A1 (priority 2001, published 2005).

The target in the assay is MMP-13CD (catalytic domain of collagenase 3) (Homo sapiens, UniProt P45452). Description: Thiopeptolide hydrolysis assay, MMP-13.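 Further: inhibition of enzymatic thiopeptolide substrate cleavage (100 µM) in pH 6.0 MES buffer with CaCl2 and DTNB, comparing hydrolysis with versus without inhibitor.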

Structures are written as SMILES. Where two headings read alike, the source gives them in different places.

The term IC50 denotes the concentration that inhibits the measured activity by half.

Method: They measure the amount by which a test compound reduces the hydrolysis of a thiopeptolide substrate caused by a matrix metalloproteinase enzyme.
Thiopeptolide substrates show virtually no decomposition or hydrolysis in the absence of a matrix metalloproteinase enzyme. A typical thiopeptolide substrate commonly utilized for assays is Ac-Pro-Leu-Gly-thioester-Leu-Leu-Gly-OEt. A 100 μL assay mixture will contain 50 mM of 2-morpholinoethane sulfonic acid monohydrate (MES, pH 6.0) 10 mM CaCl2, 100 μM thiopeptolide substrate, and 1 mM 5,5′-dithio-bis-(2-nitro-benzoic acid) (DTNB). […] Assays are carried out with and without matrix metalloproteinase inhibitor compounds, and the amount of hydrolysis is compared for a determination of inhibitory activity of the test compounds.

On to `COc1cccc(CNC(=O)c2cc3c(=O)n(Cc4ccc(C(=O)O)cc4)c(=O)n(C)c3cn2)c1`, for which, where the note is “MMP13 IC50 μM, Table IVb”, the IC50 worked out at 0.0011 µM.

Turning to `COc1ccc(C(=O)NCCOc2ccccc2)cc1C(=O)NCc1ccc2c(c1)OCO2`, the IC50 (MMP13 IC50 (nM), Table II) came to 3.1 µM. For the molecule `COc1ccc(CNC(=O)c2ccc3c(c2)c(=O)n(Cc2ccc(F)c(Cl)c2)c(=O)n3C)cc1`, the IC50 (MMP13 IC50 μM, Table IVb) was determined as 0.012 µM. Same read-out and setting: the same measure for `COC(=O)c1ccc(Cn2c(=O)c3cc(C(=O)NCc4ccc5c(c4)OCO5)ccc3n(C)c2=O)cc1`: 0.0028 µM. Under “IC50 μM, Table VII, MMP-13”, `Cn1c(=O)n(Cc2ccc(C(=O)O)cc2)c(=O)c2cc(C#Cc3ccccc3)ccc21` [Synthesis Example 75, 4-(1-Methyl-2,4-dioxo-6-(2-phenylethynyl)-1,4-dihydro-2H-quinazolin-3-ylmethyl)-benzoic acid] showed an IC50 of 1.34 µM. `Cn1c(=O)n(Cc2ccc(Cl)cc2)c(=O)c2cc(C(=O)NCc3ccncc3)ccc21`: the 50% inhibitory concentration (IC50) (MMP13 IC50 μM, Table IVb) stood at 0.053 µM. `Cn1c(=O)n(Cc2ccccc2)c(=O)c2cc(C(=O)NCCCSc3ccncc3)ccc21`: under “MMP13 IC50 μM, Table IVb”, 0.026 µM corresponded to half-maximal inhibition (IC50). On the same count and under the same terms, next, `COc1ccc(CNC(=O)c2ccc3c(c2)c(=O)n(Cc2ccc(F)cc2)c(=O)n3C)cc1`: 0.0145 µM; `COc1ccc(CNC(=O)c2ccc3c(c2)c(=O)n(C/C=C/c2ccncc2)c(=O)n3C)cc1`: 0.035 µM; `CCOC(=O)CCCn1c(=O)c2cc(C(=O)NCc3ccc(OC)cc3)ccc2n(C)c1=O`: 2.55 µM. The same measure, in the same setting: the same measure for `COc1ccc(CNC(=O)c2ccc3c(c2)c(=O)n(Cc2ccc(C(=O)N(C)C)cc2)c(=O)n3C)cc1`: 0.012 µM.

For `COC(=O)Cc1ccc(Cn2c(=O)c3cc(C(=O)NCc4ccc(OC)cc4)ccc3n3cnnc23)cc1` [Methyl (4-{7-[(4-methoxy)-benzylcarbamoyl]-5-oxo-5H-[1,2,4]triazolo[4,3-a]quinazolin-4-ylmethyl}-phenyl)-acetate], the IC50 (IC50 μM, Table V, MMP-13) is 0.0029 µM.

`COC(=O)/C=C/Cn1c(=O)c2cc(C(=O)NCc3ccc(OC)cc3)ccc2n(C)c1=O` yielded an IC50 (MMP13 IC50 μM, Table IVb) of 0.315 µM. Take `COc1ccc(CNC(=O)c2ccc3c(c2)c(=O)n(Cc2ccc(-c4noc(C)n4)cc2)c(=O)n3C)cc1`: under “MMP13 IC50 μM, Table IVb”, the IC50 came to 0.0049 µM.

With `COc1ccc(CC#Cc2ccc3c(c2)c(=O)n(Cc2ccc(C(=O)O)cc2)c(=O)n3C)cc1` [Synthesis Example 68, 4-{6-[3-(4-Methoxy-phenyl)-prop-1-ynyl]-1-methyl-2,4-dioxo-1,4-dihydro-2H-quinazolin-3-ylmethyl}-benzoic acid], the midpoint of inhibition (IC50 μM, Table VII, MMP-13), the IC50, lay at 0.0006 µM.

The molecule `COc1ccc(CNC(=O)c2ccc3c(c2)c(=O)n(Cc2ccc(-c4ccccc4C(=O)O)cc2)c(=O)n3C)cc1` showed an IC50 (MMP13 IC50 μM, Table IVb) of 0.013 µM. Where the note is “MMP13 IC50 (μM), Table 1b”, `Cc1c(=O)n(CCC(=O)c2ccc(F)cc2)c(=O)n2cc(C(=O)NCc3ccc(F)cc3)sc12` registered an IC50 of 0.51 µM. As for `COC(=O)Cc1ccc(Cn2c(=O)c3cc(C(=O)NCc4ccncc4)ccc3n(C)c2=O)cc1`, the IC50 (MMP13 IC50 μM, Table IVb) was 0.02 µM. Still for that read-out and setting: the same measure for `COc1ccc(CNC(=O)c2ccc3c(c2)c(=O)n(Cc2cccc(C(=O)O)c2)c(=O)n3C)cc1`: 0.018 µM. Where the note is “IC50 μM, Table V, MMP-13”, `COc1ccc(CNC(=O)c2ccc3c(c2)c(=O)n(Cc2ccc(C(=O)N(C)C)cc2)c2nncn32)cc1` [4-(4-Dimethylcarbamoyl-benzyl)-5-oxo-4,5-dihydro-[1,2,4]triazolo[4,3-a]quinazoline-7-carboxylic acid 4-methoxy-benzylamide] registered a 50% inhibitory concentration (IC50) of 0.0087 µM. For the setting “MMP13 IC50 (nM), Table II”, `O=C(NCc1ccncc1)c1cccc(C(=O)NCc2ccc(Cl)c(Cl)c2)c1` registered an IC50 of 2.5 µM. `COc1ccc(CNC(=O)c2ccc3c(c2)c(=O)n(Cc2ccc(C(=O)O)c(C)c2)c(=O)n3C)cc1` yielded a concentration for half-maximal inhibition (IC50) (MMP13 IC50 μM, Table IVb) of 0.0018 µM.

Molecule `COC(=O)CCn1c(=O)c2cc(C(=O)NCc3ccc(OC)cc3)ccc2n(C)c1=O` came in with an IC50 (MMP13 IC50 μM, Table IVb) of 2.1 µM. Same read-out and setting: the same measure for `COc1ccc(CNC(=O)c2cnc3c(c2)c(=O)n(Cc2ccc(F)cc2)c(=O)n3C)cc1` [3-(4-Fluoro-benzyl)-1-methyl-2,4-dioxo-1,2,3,4-tetrahydro-pyrido[2,3-d]pyrimidine-6-carboxylic acid 4-methoxy-benzylamide]: 0.032 µM. For the molecule `COc1ccc(CC#Cc2cc3c(=O)n(Cc4ccc(C(=O)O)cc4)c(=O)n(C)c3cn2)cc1` [Synthesis Example 70, 4-{6-[3-(4-Methoxy-phenyl)-prop-1-ynyl]-1-methyl-2,4-dioxo-1,4-dihydro-2H-pyrido[3,4-d]pyrimidin-3-ylmethyl}-benzoic acid], half-maximal inhibition (IC50 μM, Table VII, MMP-13) (IC50) required 0.0012 µM. Take `Cn1c(=O)n(Cc2ccc(F)cc2)c(=O)c2cc(C(=O)NCc3cccnc3)ccc21`: under “MMP13 IC50 μM, Table IVb”, half-maximal inhibition (IC50) was put at 0.12 µM. As to `Cn1c(=O)n(Cc2ccc(C#N)cc2)c(=O)c2cc(C(=O)NCc3ccncc3)ccc21`, half-maximal inhibition (MMP13 IC50 μM, Table IVb) (IC50) required 0.053 µM.

Under “MMP 13 IC50 μM, Table III”, `COc1ccc(CNC(=O)c2cc3c(=O)n(Cc4ccc5nocc5c4)c(=O)n(C)c3s2)cc1` had a half-maximal inhibitory concentration (IC50) of 0.018 µM.

As for `O=c1c2cc(C#CCc3ccccc3)ccc2n2cnnc2n1Cc1ccccc1` [Synthesis Example 71, 4-Benzyl-7-(3-phenyl-prop-1-ynyl)-4H-[1,2,4]triazolo[4,3-a]quinazolin-5-one], the 50% inhibitory concentration (IC50) (IC50 μM, Table VII, MMP-13) is 0.0055 µM.

`COc1cc(CNC(=O)c2ccc3c(c2)c(=O)n(Cc2ccc(Cl)cc2)c(=O)n3C)ccn1`: half-maximal inhibition (MMP13 IC50 μM, Table IVb) (IC50) was put at 0.011 µM. The same measure, in the same setting: the same measure for `COC(=O)Cc1ccc(Cn2c(=O)c3cc(C(=O)NCc4ccc(OC)cc4)ccc3n(C)c2=O)cc1`: 0.0034 µM; for `COc1ccc(CNC(=O)c2ccc3c(c2)c(=O)n(Cc2ccc(C(=O)O)c(F)c2)c(=O)n3C)cc1`: 0.001 µM; for `COc1ccc(CNC(=O)c2ccc3c(c2)c(=O)n(Cc2ccc(S(=O)(=O)NCCN(C)C)cc2)c(=O)n3C)cc1`: 0.055 µM.

The molecule `COC(=O)c1ccc(Cn2c(=O)c3cc(C(=O)NCc4ccncc4)ccc3n(C)c2=O)cc1` returned an IC50 (MMP13 IC50 μM, Table IVb) of 0.023 µM. As to `O=C(O)Cc1ccc(Cn2c(=O)c3cc(C(=O)NCc4ccncc4)ccc3n3cnnc23)cc1` [(4-{7-[(Pyridin-4-yl)-methylcarbamoyl]-5-oxo-5H-[1,2,4]triazolo[4,3-a]quinazolin-4-ylmethyl}-phenyl)-acetic acid], for the setting “IC50 μM, Table V, MMP-13”, the IC50 is 0.0062 µM.

Molecule `O=C(NCc1ccncc1)c1ccc2c(c1)c(=O)n(C/C=C/c1ccncc1)c1nncn21` [N-(pyridin-4-ylmethyl) 4-[3-(pyridin-4-yl)-2-propen-1-yl]-5-oxo-4H-[1,2,4]triazolo[4,3-a]quinazol-7-ylcarboxamide] displayed a half-maximal inhibitory concentration (IC50) (IC50 μM, Table V, MMP-13) of 0.35 µM.

Under “MMP13 IC50 μM, Table IVb”, `Cn1c(=O)n(Cc2ccc(C(=O)O)cc2)c(=O)c2cc(C(=O)NCc3ccc(O)cc3)ccc21` displayed an IC50 of 0.002 µM. On the same count and under the same terms, next, `Cn1c(=O)n(Cc2ccccc2)c(=O)c2cc(C(=O)OC/C=C/c3cccnc3)ccc21`: 0.34 µM; `COc1cc(CNC(=O)c2ccc3c(c2)c(=O)n(Cc2ccc(F)cc2)c(=O)n3C)ccn1`: 0.011 µM; `Cn1c(=O)n(Cc2ccccc2)c(=O)c2cc(C(=O)NCc3ccc4c(c3)OCO4)ncc21` [3-Benzyl-1-methyl-2,4-dioxo-1,2,3,4-tetrahydro-pyrido[3,4-d]pyrimidine-6-carboxylic acid (1,3-benzodioxol-5-ylmethyl)-amide]: 0.00078 µM.

`COc1cccc(CNC(=O)c2ccc3c(c2)c(=O)n(Cc2ccc(F)cc2)c(=O)n3C)c1` came in with a concentration for half-maximal inhibition (IC50) (MMP13 IC50 μM, Table IVb) of 0.0046 µM. Still for that read-out and setting: the same measure for `COc1ccc(CNC(=O)c2ccc3c(c2)c(=O)n(Cc2ccc(-c4nc(C)no4)cc2)c(=O)n3C)cc1`: 0.0029 µM. For the molecule `COc1ccc(CNC(=O)c2ccc(OC)c(C(=O)NCc3ccncc3)c2)cc1`, for the setting “MMP13 IC50 (nM), Table II”, the IC50 came out at 1.5 µM. Take `COC(=O)c1ccc(Cn2c(=O)c3cc(C(=O)NCc4ccc(SC)cc4)ccc3n(C)c2=O)cc1`: inhibition (MMP13 IC50 μM, Table IVb) was half-maximal at 0.023 µM (IC50).

With `Cn1c(=O)n(Cc2ccc(C(=O)O)cc2)c(=O)c2cc(C(=O)NCc3ccc4c(c3)OCO4)ccc21`, for the setting “MMP13 IC50 μM, Table IVb”, the IC50 amounted to 0.0009 µM. In turn, `COc1ccc(CNC(=O)c2ccc3c(c2)c(=O)n(Cc2cccc(OC)c2)c(=O)n3C)cc1` gave a 50% inhibitory concentration (IC50) (MMP13 IC50 μM, Table IVb) of 0.023 µM.

In turn, `COc1ccc(CNC(=O)c2ccc3c(c2)c(=O)n(CC=CC(=O)O)c(=O)n3C)cc1` showed a half-inhibitory concentration (IC50) (MMP13 IC50 μM, Table IVb) of 1.4 µM.

On to `COc1ccc(CNC(=O)c2ccc3c(c2)c(=O)n(Cc2ccc(C(=O)OCCN(C)C)c(OC)c2)c(=O)n3C)cc1`, for which, under “MMP13 IC50 μM, Table IVb”, half-maximal inhibition (IC50) required 0.5 µM. `COC(=O)c1nc(Cn2c(=O)c(C)c3sc(C(=O)NCc4ccc(F)cc4)cn3c2=O)ncc1OC` yielded a concentration for half-maximal inhibition (IC50) (MMP13 IC50 (μM), Table 1b) of 1.85 µM.

In turn, `COc1ccc(CNC(=O)c2ccc3c(c2)c(=O)n(CC=C(C)C)c(=O)n3C)cc1` came in with a half-maximal inhibitory concentration (IC50) (MMP13 IC50 μM, Table IVb) of 0.2 µM. Where the note is “MMP 13 IC50 μM, Table III”, `COc1cccc(CNC(=O)c2cc3c(=O)n(CS(=O)(=O)Cc4ccccc4)c(=O)n(C)c3s2)c1` showed an IC50 of 1.7 µM. In turn, `COC(=O)c1ccc(Cn2c(=O)c3cc(C(=O)NCc4ccc(F)cc4)ccc3n(C)c2=O)cc1` registered an IC50 (MMP13 IC50 μM, Table IVb) of 0.01 µM. On the same count and under the same terms, the same measure for `Cn1c(=O)n(CC=Cc2ccncc2)c(=O)c2cc(C(=O)NCc3ccncc3)ccc21`: 0.24 µM; for `COc1ccc(CNC(=O)c2ccc3c(c2)c(=O)n(Cc2ccc(C(=O)O)c(OC)c2)c(=O)n3C)cc1`: 0.0045 µM. The same measure, in the same setting: the same measure for `CCOC(=O)c1ccc(Cn2c(=O)c3cc(C(=O)NCc4ccc(OC)cc4)ccc3n(C)c2=O)cc1F`: 0.009 µM; for `Cn1c(=O)n(Cc2ccc(Cl)cc2)c(=O)c2cc(C(=O)NCc3cccnc3)ccc21`: 0.093 µM; for `Cn1c(=O)n(Cc2cccc(F)c2)c(=O)c2cc(C(=O)NCc3ccncc3)ccc21`: 0.017 µM. Under “MMP13 IC50 μM, Table IVb”, `C=CCn1c(=O)c2cc(C(=O)NCc3ccc(OC)cc3)ccc2n(C)c1=O` came in with an IC50 of 1.01 µM. In the case of `COc1ccc(CNC(=O)c2cc3c(=O)n(CCS(=O)(=O)c4ccccc4)c(=O)n(C)c3s2)cc1`, where the note is “read-out: MMP 13 IC50 μM, Table III”, the IC50 was determined as 4 µM. For the setting “MMP13 IC50 μM, Table IVb”, `COc1ccc(CNC(=O)c2ccc3c(c2)c(=O)n(CC2CCCCC2)c(=O)n3C)cc1` returned an IC50 of 0.042 µM. Same read-out and setting: next, `COc1ccc(CNC(=O)c2ccc3c(c2)c(=O)n(Cc2ccc(C(=O)OCCN(C)C)c(C)c2)c(=O)n3C)cc1`: 0.11 µM. On to `O=C(O)c1ccc(Cn2c(=O)c3cc(C(=O)NCc4ccncc4)ccc3n3cnnc23)cc1` [4-{7-[(Pyridin-4-ylmethyl)-carbamoyl]-5-oxo-5H-[1,2,4]triazolo[4,3-a]quinazol-4-ylmethyl} benzoic acid], for which, under “IC50 μM, Table V, MMP-13”, the IC50 came out at 0.0042 µM.
